Results from PMC6429183, “Identification of Compounds That Inhibit Estrogen-Related Receptor Alpha Signaling Using High-Throughput Screening Assays” (Molecules, 2019).
Several values for one entry are separate records, joined by “and”; a condition that tells them apart may be missing. Identical values can stand only once. Counter-ions that a name gives are not always drawn. Like-named read-outs stand apart in the source and are kept apart here.

Tests used:
[1] = tested on: IDH3α; experiment: qRT-PCR mRNA expression of ERR downstream gene IDH3α; format: cell-based; conditions: ERR reporter cells, vs GAPDH, DMSO = 0%
Method: (§1) Total RNA was isolated from treated ERR reporter cells using an RNeasy Mini Kit (Qiagen, Germantown, MD, USA), homogenized using a QIAshredder (Qiagen), and reverse transcribed with a High-Capacity RNA-to-cDNA™ Kit (ThermoFisher Scientific, Inc.) following the manufacturers’ instructions. Expression of ERRα, COX8α, IDH3α, PPARα, COX4I1, and cytochrome c genes was normalized against GAPDH. All primers were purchased from ThermoFisher Scientific, Inc. Real-time PCR assays were performed in 384-well plates on a QuantStudio 5 (Applied Biosystems, Foster City, CA, USA) with TaqMan™ Gene Expression Master Mix (ThermoFisher Scientific, Inc.). Induction values were calculated using the equation: Fold = 2^ΔΔCt, where ΔCt represents the differences in cycle threshold numbers between each of the target genes and GAPDH, and ΔΔCt represents the relative change in these differences between control and treatment groups. Experimental data are presented as a mean of triplicate determinations ± SD. Statistical comparisons were made by t-test, while the statistical significance was set at p values of <0.05 (light blue), <0.01 (medium blue), and <0.001 (dark blue).

[2] = tested on: PGC/ERR reporter HEK293 cells; experiment: CellTiter-Fluor cell viability assay multiplexed with PGC/ERR reporter assay; format: cell-based; conditions: for PGC/ERR-HEK293 Follow-Up Viability EC50: follow-up screen; for PGC/ERR-HEK293 Primary Viability EC50: primary qHTS; for EC50: Homo sapiens
Method: (§2) ERR or PGC/ERR reporter HEK293 cells suspended in culture medium without puromycin were dispensed at 2500 cells/5 μL/well in tissue culture–treated 1536-well white assay plates (Greiner Bio-One North America, Monroe, NC, USA) using a Thermo Scientific Multidrop Combi (ThermoFisher Scientific, Inc.). […] After the cells were incubated at 37 °C with 5% CO2 for 6 h, 23 nL of compounds or control, XTC790, was transferred into the assay plates using a Wako Pintool station (Wako Automation, San Diego, CA, USA). The assay plates were incubated at 37 °C for 18 h, followed by the addition of 5 μL ONE-Glo luciferase reagent (Promega, Madison, WI, USA) using a Flying Reagent Dispenser (Aurora Discovery, Carlsbad, CA, USA). After 30 min of incubation at room temperature, the luminescence intensity of the assay plates was quantified using a ViewLux plate reader (PerkinElmer, Shelton, CT, USA). The assays were performed three times for each compound concentration. These ERR and PGC/ERR reporter assays were multiplexed with the CellTiter-Fluor Cell Viability Assay (Promega), a fluorescence-based cell viability assay, to assess compound cytotoxicity.
The qHTS data were analyzed as described previously. Each titration point was normalized relative to the positive control compound (XCT790 = −100%) and DMSO-only wells (0%) according to the following equation: % Activity = [(Vcompound − VDMSO)/(VDMSO − Vpos)] × 100, where Vcompound denotes the compound well values, Vpos denotes the median value of the positive control wells, and VDMSO denotes the median values of the DMSO-only wells. The DMSO-only compound plates at the beginning and end of the compound plate stack were used to correct the data set by applying an in-house pattern correction algorithm. The half maximum inhibition values (IC50) for each compound and maximum response (efficacy) values were obtained by fitting the concentration-response curves of each compound to a four-parameter Hill equation [91]. Compounds were designated as Class 1–4 according to the type of concentration–response curve observed. For each reading, the activity outcome of a test compound was first categorized by the average curve rank from the triplicate runs and the reproducibility calls. The final activity outcome of each compound was based on the ERR antagonist readout activity and cell viability counter screen.

[3] = target: T1, ERRα with PGC-1α (PGC/ERR pathway) (Homo sapiens, UniProt P11474); experiment: PGC/ERR reporter (luciferase) qHTS assay, PGC/ERR-HEK293; conditions: for PGC/ERR-HEK293 Follow-Up Efficacy / PGC/ERR-HEK293 Primary Efficacy: negative = antagonism, positive = agonism
T1 sequence (P11474 1-423): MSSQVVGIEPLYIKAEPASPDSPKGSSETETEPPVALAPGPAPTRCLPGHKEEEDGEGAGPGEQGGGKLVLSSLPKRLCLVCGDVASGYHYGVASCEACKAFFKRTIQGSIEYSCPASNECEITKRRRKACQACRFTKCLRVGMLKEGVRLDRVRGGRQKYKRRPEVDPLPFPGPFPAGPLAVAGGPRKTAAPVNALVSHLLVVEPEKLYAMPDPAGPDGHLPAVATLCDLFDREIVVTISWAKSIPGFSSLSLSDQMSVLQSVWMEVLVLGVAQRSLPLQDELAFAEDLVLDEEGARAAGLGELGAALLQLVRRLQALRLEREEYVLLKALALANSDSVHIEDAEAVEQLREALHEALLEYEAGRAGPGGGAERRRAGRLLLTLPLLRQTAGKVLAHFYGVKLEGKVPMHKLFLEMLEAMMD
Method: (§3) The ERR reporter HEK293 cells were cultured in high glucose DMEM medium (ThermoFisher Scientific, Inc., Waltham, MA, USA) supplemented with 10% fetal bovine serum (FBS; ThermoFisher Scientific, Inc.), 4 mM of L-glutamine (ThermoFisher Scientific, Inc.), 1 mM of sodium pyruvate (ThermoFisher Scientific, Inc.), 100 U/mL of penicillin and 100 mg/mL of streptomycin (ThermoFisher Scientific, Inc.). PGC/ERR reporter HEK293 cells were cultured in the same medium as the ERR reporter HEK293 cells with an additional 1 μg/mL puromycin (ThermoFisher Scientific, Inc.) as the selection marker for PGC-1α expression.
(§4) The DMSO-only compound plates at the beginning and end of the compound plate stack were used to correct the data set by applying an in-house pattern correction algorithm [90]. The half maximum inhibition values (IC50) for each compound and maximum response (efficacy) values were obtained by fitting the concentration-response curves of each compound to a four-parameter Hill equation [91]. […] For each reading, the activity outcome of a test compound was first categorized by the average curve rank from the triplicate runs and the reproducibility calls. The final activity outcome of each compound was based on the ERR antagonist readout activity and cell viability counter screen.

[4] = target: T2, estrogen-related receptor alpha (ERRα) (Homo sapiens, UniProt P11474); experiment: ERR reporter (luciferase) antagonist qHTS assay, ERR-HEK293; conditions: for ERR-HEK293 Follow-Up Efficacy: follow-up screen; for ERR-HEK293 Follow-Up Efficacy / ERR-HEK293 Primary Efficacy: relative to XCT790 = −100%; for ERR-HEK293 Primary Efficacy: primary qHTS, DMSO = 0%
T2 sequence (P11474 1-423): T1 sequence (P11474 1-423)
Method: as §3, §4

[5] = tested on: ERR reporter HEK293 cells; experiment: CellTiter-Fluor cell viability assay multiplexed with ERR reporter assay; format: cell-based; conditions: for EC50: Homo sapiens, HEK293
Method: as §2
The qHTS data were analyzed as described previously. […] The DMSO-only compound plates at the beginning and end of the compound plate stack were used to correct the data set by applying an in-house pattern correction algorithm. The half maximum inhibition values (IC50) for each compound and maximum response (efficacy) values were obtained by fitting the concentration-response curves of each compound to a four-parameter Hill equation [91]. […] For each reading, the activity outcome of a test compound was first categorized by the average curve rank from the triplicate runs and the reproducibility calls. The final activity outcome of each compound was based on the ERR antagonist readout activity and cell viability counter screen.

[6] = tested on: cytochrome c; experiment: qRT-PCR mRNA expression of ERR downstream gene cytochrome c; format: cell-based; conditions: ERR reporter cells, vs GAPDH, DMSO = 0%
Method: as §1

[7] = tested on: COX8α; experiment: qRT-PCR mRNA expression of ERR downstream gene COX8α; format: cell-based; conditions: ERR reporter cells, vs GAPDH, DMSO = 0%
Method: as §1

[8] = primary qHTS, viability counter screen
[9] = PGC/ERR-HEK293 Follow-Up EC50, follow-up screen, mean ± SD, triplicate
[10] = PGC/ERR-HEK293 Primary EC50, primary qHTS, 18 h, mean ± SD, triplicate
[11] = ERR-HEK293 Follow-Up EC50, follow-up (confirmation) screen, mean ± SD, triplicate
[12] = ERR-HEK293 Primary EC50, primary qHTS, 18 h, 15 concentrations, mean ± SD, triplicate

Row | Compound | PGC/ERR-HEK293 Follow-Up Viability EC50 [2] | PGC/ERR-HEK293 Primary Viability EC50 [2] | PGC/ERR-HEK293 Follow-Up Efficacy ([3]; follow-up screen) [%] | PGC/ERR-HEK293 Primary Efficacy ([3]; primary qHTS) | ERR-HEK293 Follow-Up Efficacy [4] [%] | ERR-HEK293 Primary Efficacy [4] [%] | ERR-HEK293 Follow-Up Viability EC50 ([5]; follow-up screen, viability) | ERR-HEK293 Primary Viability EC50 [5, 8] | EC50 [3, 9] [nM] | EC50 [3, 10] [nM] | EC50 [4, 11] [nM] | EC50 [4, 12] [nM] | other results
1 | Nc1ncn([C@H]2C[C@H](O)[C@@H](CO)O2)c(=O)n1 [Decitabine] | – | – | – | – | – | – | – | – | – | – | – | – | Percent inhibition of mRNA gene expression, IDH3α ([1]; 2 µM): 5.79 ± 45.6%
2 | CC[C@@]1(O)C(=O)OCc2c1cc1n(c2=O)Cc2c-1nc1ccccc1c2/C=N/OC(C)(C)C [Gimatecan] | Inactive | Inactive | −130 ± 20.6 | −115 ± 2.20% | −145 ± 16.0 | −117 ± 14.5 | Inactive | Inactive | – | – | – | – | EC50 ([3]; PGC/ERR-HEK293 Follow-Up EC50): 3340 nM; EC50 ([3]; PGC/ERR-HEK293 Primary EC50): 2530 nM; EC50 ([4]; ERR-HEK293 Follow-Up EC50): 44.2 nM; EC50 ([4]; ERR-HEK293 Primary EC50): 49.7 nM
3 | Nc1ccc2cc3ccc(N)cc3nc2c1 [Proflavin hemisulfate] | – | – | – | – | – | – | – | – | – | – | – | – | Percent inhibition of mRNA gene expression, IDH3α ([1]; 3 µM): 24.9 ± 20.6%; Percent inhibition of mRNA gene expression, Cytochrome C ([6]; 3 µM): 20.6 ± 8.69%; Percent inhibition of mRNA gene expression, COX8α ([7]; 3 µM): 34.8 ± 26.7%
4 | Cc1nn(C)c(Oc2ccccc2)c1C=NOCc1ccc(C(=O)OC(C)(C)C)cc1 [Fenpyroximate] | – | – | −56.2 ± 10.5 | −36.8% and −36.8 ± 2.17% | −89.6 ± 6.08 | −67.1 ± 9.31 | – | – | 18.6 ± 21 | 8.75 ± 0.572 | 6.99 ± 3.28 | 4.52 ± 0.577 | EC50 ([3]; potency, ERR/PGC antagonist assay, primary screen): 8.8 nM; Percent inhibition of mRNA gene expression, Cytochrome C ([6]; 7.5 nM): 5.28 ± 4.56%; EC50 ([4]; potency, ERR antagonist assay, primary screen): 4.5 nM
5 | COc1ccc2cc3[n+](cc2c1OC)CCc1cc2c(cc1-3)OCO2 [Berberine] | – | – | −87.4 ± 20.8 | −77.3 ± 14.6% | −92.0 ± 16.0 | −88.4 ± 7.45 | – | – | 8930 ± 4010 | 6130 ± 1710 | 3290 ± 2270 | 3160 ± 713 | EC50 ([2]; HEK293, follow-up screen, read-out: PGC/ERR-HEK293 Follow-Up Viability EC50 (converted)): 17300 nM; EC50 ([2]; HEK293, primary qHTS, read-out: PGC/ERR-HEK293 Primary Viability EC50 (converted)): 17300 nM; activity in the ERR/PGC assay ([3]; in words): antagonism; Percent inhibition of mRNA gene expression, IDH3α ([1]; 20 µM): 15.1 ± 2.97%; Percent inhibition of mRNA gene expression, Cytochrome C ([6]; 20 µM): 46.2 ± 2.61%; activity in the ERR assay ([4]; in words): potent antagonists; EC50 ([5]; follow-up screen, viability, read-out: ERR-HEK293 Follow-Up Viability EC50 (converted)): 12700 nM; EC50 ([5]; primary qHTS, viability counter screen, read-out: ERR-HEK293 Primary Viability EC50 (converted)): 12800 nM; Percent inhibition of mRNA gene expression, COX8α ([7]; 20 µM): 5.15 ± 0.17%
6 | CC[C@@]1(O)C(=O)OCc2c1cc1n(c2=O)Cc2cc3c(CN(C)C)c(O)ccc3nc2-1 [Topotecan hydrochloride] | Inactive | Inactive | −78.8 ± 7.20 | −69.1 ± 5.82% | −140 ± 24.4 | −127 ± 11.8 | Inactive | Inactive | 5260 | 14100 ± 1150 | 722 ± 285 | 1240 ± 83.7 | ERR-HEK293 Primary Efficacy ([4]; listed as topotecan): −127%
7 | CON=C(C(=O)OC)c1ccccc1CON=C(C)c1cccc(C(F)(F)F)c1 [Trifloxystrobin] | – | – | – | – | – | – | – | – | – | – | – | – | Percent inhibition of mRNA gene expression, IDH3α ([1]; 0.5 µM): 10.4 ± 0.21%; Percent inhibition of mRNA gene expression, COX8α ([7]; 0.5 µM): 38.4 ± 17.2%
8 | O=c1[nH]c(=O)n([C@H]2C[C@H](O)[C@@H](CO)O2)cc1C(F)(F)F [Trifluridine] | Inactive Inactive | Inactive Inactive | – | – | −67.7 ± 6.20 | −51.8 ± 5.77 | Inactive | Inactive | – | – | 1750 ± 314 | 875 ± 59.3 | PGC/ERR-HEK293 Follow-Up EC50 ([3]; follow-up screen, mean ± SD, triplicate): Inactive Inactive; PGC/ERR-HEK293 Primary EC50 ([3]; primary qHTS, 18 h, mean ± SD, triplicate): Inactive Inactive; Percent inhibition of mRNA gene expression, COX8α ([7]; 1 µM): 43.2 ± 21.8%
9 | CO/N=C(/C1=NOCCO1)c1ccccc1Oc1ncnc(Oc2ccccc2Cl)c1F [Fluoxastrobin] | – | – | – | – | – | – | – | – | – | – | – | – | Percent inhibition of mRNA gene expression, IDH3α ([1]; 7 µM): 13.3 ± 2.44%; Percent inhibition of mRNA gene expression, Cytochrome C ([6]; 7 µM): 25.5 ± 7.81%
